Target: T1, TRIM24-PB chromatin binding in HeLa TRIM24-PB cells (Homo sapiens, UniProt O15164)
T1 construct: The FLAG-TRIM24-PB construct (residues 810–1050) was generated by PCR amplification; expressed in transfected cells
T1 sequence (O15164 810-1050): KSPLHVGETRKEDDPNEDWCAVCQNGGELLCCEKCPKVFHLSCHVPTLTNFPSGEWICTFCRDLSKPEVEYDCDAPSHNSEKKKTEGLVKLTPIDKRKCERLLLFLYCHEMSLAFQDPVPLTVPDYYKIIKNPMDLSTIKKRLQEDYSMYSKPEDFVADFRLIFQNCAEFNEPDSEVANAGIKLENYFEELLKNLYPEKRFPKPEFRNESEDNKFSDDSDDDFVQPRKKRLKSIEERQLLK
Experiment: In situ cell extraction with IF in HeLa TRIM24-PB cells
Assay type: cell-based
Method: OV90 or HeLa cells (20,000 cells/100 µL) were seeded into 96-well plates (Corning Costar #3603) using RPMI or DMEM medium, respectively, supplemented with 10 % FBS and grown overnight. Test agents were serially diluted in DMSO (with or without SAHA) to generate 10X master compound plates. From here, 11 µL was transferred into each well containing 100 µL of growth media followed by shaking on a rotation table (15 min, 300 rpm at RT) and incubation at 37 °C for 2 h. Plates were washed once with PBS (150 µL/well) and then with cold, freshly prepared Cytoskeleton (CSK) Buffer (10 mM PIPES, 300 mM Sucrose, 100 mM NaCl, 3 mM MgCl2; pH = 6.8). Immediately thereafter, soluble, non-chromatin-bound proteins were extracted by addition of cold CSK Buffer supplemented with 0.5 % Triton X-100 (150 µL per well) for 10 min at 4 °C followed by 4 % paraformaldehyde fixation (10 min at RT) (Additional file 1: Table S3).
Standard IF procedures were used. Briefly, cells were permeabilized (0.5 % Triton X-100 in PBS) for 15 min and incubated with blocking solution (DAKO #X0909) for 30 min. The following primary antibodies were used: goat anti-V5 (Bethyl #A190-119A) 1:200; mouse anti-FLAG (Sigma #F1804) 1:200; rabbit anti-BRD4 (Abcam #ab128874) 1:200; rabbit anti-TRIM24 (Proteintech #14208-1-AP) 1:400; rabbit anti-K3K23Ac (Cell Signaling #8848) 1:200, and mouse anti-histone H3 (Active Motif #39763) 1:4000. Alexa Fluor-conjugated secondary antibodies were from Invitrogen and Hoechst 33342 (Invitrogen, #H3570) was used for nuclei counterstaining (10 µg/ml). For each Alexa fluorochrome, images (4–10 fields per well; 20X magnifications) were acquired using the Operetta High-Content Screening System (PerkinElmer). Image analysis was performed in Harmony software (PerkinElmer) by selecting nuclei and cytoplasm in Hoechst channel. Gating for single cells of flat morphology was done based on nuclei area, roundness and intensity of Hoechst in the nucleus and in the cytoplasm. In every gated cell, the mean signal intensity value for each fluorochrome was calculated separately in nucleus and cytoplasm. The specific nuclear signal was estimated subtracting mean cytoplasmic value from nuclear; and average value was calculated using at least 1000 cells in each well.
Supplemental Table S3 (Zhan et al.)
Table S3. In Situ Cell Extraction Procedure (IF)
Step Parameter Solution Volume Time Temp (°C)
Seed cells DMEM supplemented with 10 % FBS 37°C,
2 SAHA treatment SAHA (50 µM) in DMEM with 10% FBS 12 µL 2h 37°C,
3 Prepare Master 100X final concentration in assay 30 µL […]
Image analysis: The analysis was performed in Harmony (PerkinElmer) software by selecting nuclei and cytoplasm in Hoechst 33342 channel . […] For each channel “mean nuclear signal“ was calculated as “mean […]

Row | Time to displacement of TRIM24-PB from chromatin (HeLa TRIM24-PB) [min] | IF signal of chromatin-bound TRIM24-PB (HeLa TRIM24-PB with SAHA, anti-FLAG and anti-TRIM24 antibodies, 2 h) | SAHA-induced TRIM24-PB chromatin binding (assay window) (anti-FLAG antibody) | SAHA-induced TRIM24-PB chromatin binding (assay window) (anti-TRIM24 antibody) | SMILES
1 | ≤ 5 | reducing the IF signal to baseline | – | – | Cc1nc(S(=O)(=O)Nc2cc3c(cc2Oc2cccc(OCC(C)C)c2)n(C)c(=O)n3C)cn1C [IACS-6558, N-{1,3-dimethyl-6-[3-(2-methylpropoxy)phenoxy]-2-oxo-2,3-dihydro-1H-1,3-benzodiazol-5-yl}-1,2-dimethyl-1H-imidazole-4-sulfonamide]
2 | – | – | fivefold | twofold | O=C(CCCCCCC(=O)Nc1ccccc1)NO [SAHA, Suberoylanilide Hydroxamic Acid]

Reference: article PMC4578755, “Development of novel cellular histone-binding and chromatin-displacement assays for bromodomain drug discovery” (Epigenetics & Chromatin, 2015)
